Laboratory results taken from patent US8148070B2, “Genetic polymorphisms associated with coronary events and drug response, methods of detection and uses thereof” (Celera Corporation, priority 2007, dated 2012).

Test system: CARE patients
Assay: CARE trial: pravastatin vs placebo, recurrent MI in subgroups defined by KIF6 (and neighbouring SNP) genotype
Assay type: in vivo, human
Conditions: for HR, Unadjusted (recurrent MI, pravastatin vs placebo): placebo = ref; for OR for minor hom / OR for carrier (Min + Het) / OR for Het / OR for major hom: risk of recurrent MI
Text: In order to identify genetic markers associated with CHD (particularly MI, including recurrent MI) or the effect of statin treatment on CHD, samples were genotyped in two clinical trials: the Cholesterol and Recurrent Events (CARE) study (a randomized multicentral double-blinded trial on secondary prevention of MI with pravastatin (Pravachol®); Sacks et al., Am. J. Cardiol. 68: 1436-1446 [1991]), and the West of Scotland Coronary Prevention Study (WOSCOPS) study (a randomized multicentral double-blinded trial on primary prevention of CHD with pravastatin (Pravachol®); Shepherd et al., N Eng J Med 333 (20), pp. 1301-7, Nov. 16, 1995; Packard et al., N Eng J Med 343 (16), pp. 1148-55, Oct. 19, 2000).
A well-documented MI was one of the enrollment criteria for entry into the CARE study. Patients were enrolled in the CARE trial from 80 participating study centers. […] Patients were randomized to receive either 40 mg of pravastatin once daily or a matching placebo. The primary endpoint of the trial was death from CHD or nonfatal MI and the median duration of follow-up was 5.0 years (range, 4.0 to 6.2 years). For this genetic study of CARE, a composite endpoint comprised of fatal or nonfatal recurrent MI was used.
For genotyping SNPs in CARE patient samples, DNA was extracted from blood samples using conventional DNA extraction methods such as the QIAamp kit from Qiagen. Genotypes were obtained by a method similar to that described by Iannone (M. A. Iannone et al., Cytometry 39(2):131-140 [Feb. 1, 2000]; also described in section “SNP DETECTION REAGENTS,” supra). Briefly, target DNA was amplified by multiplex PCR, the amplified product was submitted to a multiplex oligo ligation assay (OLA), the specific ligated products were hybridized to unique universal “ZIP code” oligomer sequences covalently attached to Luminex xMAP® Multi-Analyte COOH Microspheres, and these hybridization products/microspheres were detected in a rapid automated multiplex system (Luminex 100 instrument).
In analyzing the CARE patients, statistical analysis was performed with SAS version 9. Cox proportional hazard models (Wald tests) were used in CARE to assess the association of genotype with both the risk of incident MI in the placebo arm and the effect of pravastatin on MI compared to placebo in subgroups defined by genotypes. In analyzing the WOSCOPS patients, a conditional logistic regression model was used in WOSCOPS given that the controls had been previously matched to the cases. The column entitled “On-trial MI” lists the number of patients who suffered a recurrent MI during the clinical trial period.
HR stands for Hazard Ratio, which is a concept similar to Odds Ratio (OR). The HR in event-free survival analysis is the effect of an explanatory variable on the hazard or risk of an event. For examples, it describes the likelihood of developing MI based on comparison of rate of coronary events between carriers of the certain allele and noncarriers; therefore, HR=1.5 would mean that carriers of the certain allele have 50% higher risk of coronary events during the study follow up than non-carriers. HR can also describe the effect of statin therapy on coronary events based on comparison of rate of coronary events between patient treated with statin and patient treated with placebo (or other statin) in subgroups defined by SNP genotype; therefore, HR=0.5 would mean that, for example, carriers of the certain allele, had 50% reduction of coronary events by statin therapy as compared to placebo. In Table 6, p interaction values were calculated. An interaction (or effect modification) is formed when a third variable modifies the relation between an exposure and outcome. […] Genotype and drug interaction is present when the effect of statins (incidence rate of disease in statin-treated group, as compared to placebo) differs in patients with different genotypes. The hCV3054799 risk allele predicted risk of MI in CARE and was associated with odds of CHD in WOSCOPS. […]

SMILES: CC[C@H](C)C(=O)O[C@H]1C[C@H](O)C=C2C=C[C@H](C)[C@H](CC[C@@H](O)C[C@@H](O)CC(=O)O)[C@H]21 [Pravastatin, pravastatin]
- HR, Adjusted (recurrent MI, pravastatin vs placebo) (AA (noncarriers), adjusted for conventional risk factors): 0.80
- On-trial MI (AA, of 554 patients in the pravastatin arm): 39 number of patients
- HR, Adjusted (recurrent MI, pravastatin vs placebo) (GG + GA (719Arg carriers), adjusted for age, smoking, hypertension, diabetes, BMI, LDL-C, HDL-C): 0.63
- On-trial MI (GG + GA, of 810 patients in the pravastatin arm): 64 number of patients
- HR, Unadjusted (recurrent MI, pravastatin vs placebo) (KIF6 Trp719Arg AA (noncarriers)): 0.86
- HR, Unadjusted (recurrent MI, pravastatin vs placebo) (KIF6 Trp719Arg GG + GA (719Arg carriers), 40 mg pravastatin once daily): 0.63
- reduction of relative risk of recurrent MI (carriers of the 719Arg risk allele, pravastatin vs placebo): 37%
- risk reduction (coronary events) (noncarriers, pravastatin vs placebo, insignificant): 20%
- OR, Effect of Pravastatin on MI and CHD (pravastatin vs placebo, hCV3054808 genotype AA): 1.04
- OR, Effect of Pravastatin on MI and CHD (pravastatin vs placebo, hCV3054808 genotype AC): 0.50
- OR, Effect of Pravastatin on MI and CHD (pravastatin vs placebo, hCV3054808 genotype CC): 1.01
- OR, Effect of Pravastatin on MI and CHD (pravastatin vs placebo, hCV3054813 genotype CC): 0.98
- OR, Effect of Pravastatin on MI and CHD (pravastatin vs placebo, hCV3054813 genotype CT): 0.45
- OR, Effect of Pravastatin on MI and CHD (pravastatin vs placebo, hCV3054813 genotype TT): 1.06
- OR, Effect of Pravastatin on MI and CHD (pravastatin vs placebo, hCV29992177 genotype AA): 0.71
- OR, Effect of Pravastatin on MI and CHD (pravastatin vs placebo, hCV29992177 genotype GA): 0.57
- OR, Effect of Pravastatin on MI and CHD (pravastatin vs placebo, hCV29992177 genotype GG): 1.88
- OR, Effect of Pravastatin on MI and CHD (pravastatin vs placebo, hCV30225864 genotype CC): 0.79
- OR, Effect of Pravastatin on MI and CHD (pravastatin vs placebo, hCV30225864 genotype CT): 0.63
- OR, Effect of Pravastatin on MI and CHD (pravastatin vs placebo, hCV30225864 genotype TT): 0.73
- OR for minor hom (pravastatin vs placebo, hCV792699 CC minor homozygotes): 0.8127
- OR for carrier (Min + Het) (pravastatin vs placebo, hCV792699 CC+CT carriers of minor allele): 0.7089
- OR for Het (pravastatin vs placebo, hCV792699 CT heterozygotes): 0.6534
- OR for major hom (pravastatin vs placebo, hCV792699 TT major homozygotes): 0.8085
- OR for major hom (pravastatin vs placebo, hCV1650850 CC major homozygotes): 0.7381
- OR for Het (pravastatin vs placebo, hCV1650850 GC heterozygotes): 1.7143
- OR for carrier (Min + Het) (pravastatin vs placebo, hCV1650850 GG+GC carriers of minor allele): 1.7143
- OR for minor hom (pravastatin vs placebo, hCV3054766 AA minor homozygotes): 0.4856
- OR for carrier (Min + Het) (pravastatin vs placebo, hCV3054766 AA+AC carriers of minor allele): 0.6695
- OR for Het (pravastatin vs placebo, hCV3054766 AC heterozygotes): 0.7705
- OR for major hom (pravastatin vs placebo, hCV3054766 CC major homozygotes): 0.9847
- OR for minor hom (pravastatin vs placebo, hCV3054789 AA minor homozygotes): 1.0873
- OR for carrier (Min + Het) (pravastatin vs placebo, hCV3054789 AA+AT carriers of minor allele): 0.8227
- OR for Het (pravastatin vs placebo, hCV3054789 AT heterozygotes): 0.7597
- OR for major hom (pravastatin vs placebo, hCV3054789 TT major homozygotes): 0.6567
- OR for major hom (pravastatin vs placebo, hCV3054799 AA major homozygotes): 0.8639
- OR for Het (pravastatin vs placebo, hCV3054799 GA heterozygotes): 0.5818
- OR for minor hom (pravastatin vs placebo, hCV3054799 GG minor homozygotes): 0.9215
- OR for carrier (Min + Het) (pravastatin vs placebo, hCV3054799 GG+GA carriers of minor allele): 0.6442
- OR for major hom (pravastatin vs placebo, hCV3054805 CC major homozygotes): 0.9323
- OR for Het (pravastatin vs placebo, hCV3054805 GC heterozygotes): 0.5933
- OR for minor hom (pravastatin vs placebo, hCV3054805 GG minor homozygotes): 0.9317
- OR for carrier (Min + Het) (pravastatin vs placebo, hCV3054805 GG+GC carriers of minor allele): 0.6653
- OR for minor hom (pravastatin vs placebo, hCV3054808 AA minor homozygotes): 1.037
- OR for carrier (Min + Het) (pravastatin vs placebo, hCV3054808 AA+AC carriers of minor allele): 0.6257
- OR for Het (pravastatin vs placebo, hCV3054808 AC heterozygotes): 0.5292
- OR for major hom (pravastatin vs placebo, hCV3054808 CC major homozygotes): 1.0056
- OR for minor hom (pravastatin vs placebo, hCV3054822 AA minor homozygotes): 0.852
- OR for carrier (Min + Het) (pravastatin vs placebo, hCV3054822 AA+AT carriers of minor allele): 0.5778
- OR for Het (pravastatin vs placebo, hCV3054822 AT heterozygotes): 0.5213
- OR for major hom (pravastatin vs placebo, hCV3054822 TT major homozygotes): 0.9897
- OR for minor hom (pravastatin vs placebo, hCV3054829 CC minor homozygotes): 0.9021
- OR for carrier (Min + Het) (pravastatin vs placebo, hCV3054829 CC+CT carriers of minor allele): 0.8052
- OR for Het (pravastatin vs placebo, hCV3054829 CT heterozygotes): 0.783
- OR for major hom (pravastatin vs placebo, hCV3054829 TT major homozygotes): 0.6064
- OR for carrier (Min + Het) (pravastatin vs placebo, hCV15876373 CC+CT carriers of minor allele): 0.9708
- OR for Het (pravastatin vs placebo, hCV15876373 CT heterozygotes): 0.8241
- OR for major hom (pravastatin vs placebo, hCV15876373 TT major homozygotes): 0.6881
- OR for major hom (pravastatin vs placebo, hCV29649182 CC major homozygotes): 0.7223
- OR for Het (pravastatin vs placebo, hCV29649182 TC heterozygotes): 0.7631
- OR for minor hom (pravastatin vs placebo, hCV29649182 TT minor homozygotes): 1.7333
- OR for carrier (Min + Het) (pravastatin vs placebo, hCV29649182 TT+TC carriers of minor allele): 0.7818
- OR for minor hom (pravastatin vs placebo, hCV30388472 CC minor homozygotes): 0.5175
- OR for carrier (Min + Het) (pravastatin vs placebo, hCV30388472 CC+CT carriers of minor allele): 0.6291
- OR for Het (pravastatin vs placebo, hCV30388472 CT heterozygotes): 0.6798
- OR for major hom (pravastatin vs placebo, hCV30388472 TT major homozygotes): 1.0182
- OR for carrier (Min + Het) (pravastatin vs placebo, hCV30478067 AA+AG carriers of minor allele): 0.6875
- OR for Het (pravastatin vs placebo, hCV30478067 AG heterozygotes): 0.5153
- OR for major hom (pravastatin vs placebo, hCV30478067 GG major homozygotes): 0.7461
- OR for carrier (Min + Het) (pravastatin vs placebo, hCV31340487 CC+CT carriers of minor allele): 1.1573
- OR for Het (pravastatin vs placebo, hCV31340487 CT heterozygotes): 1.0761
- OR for major hom (pravastatin vs placebo, hCV31340487 TT major homozygotes): 0.697
- OR for carrier (Min + Het) (pravastatin vs placebo, hCV32202303 CC+CG carriers of minor allele): 0.5857
- OR for Het (pravastatin vs placebo, hCV32202303 CG heterozygotes): 0.6208
- OR for major hom (pravastatin vs placebo, hCV32202303 GG major homozygotes): 0.7655
- patients who had experienced another MI (whole pravastatin-treated group, 5 years of follow-up): 114 patients
